# Source: patent publication US20230078811A1, “USE OF DISTILLABLE VOLATILE SALT FOR THE PRETREATMENT OF BIOMASS” (The Regents of the University of California, priority 2020, published 2023)
# Assay: Distillation efficiency: pretreating solvent left in the solids after pretreatment and distillation
# Format: physicochemical
# Details: pretreat 100° C. 1 hour; distill 100° C. 1 hour, full vacuum; 40% solid loading; FIG. 4
# Procedure: Distillation efficiency is measured using the following procedure: pretreat at 100° C. for 1 hour; distill at 100° C. for 1 hours in full vacuum, 40% solid loading (SL) with ethanolamine, enzyme saccharification (5%, 10%, 20% SL), and 10 mg/g biomass of CTEC/HTEC 9/1 cellulase. Distillation efficiency can be measured by determining the concentration of pretreating solvent in the solids after pretreatment.
compound,measurement,value
NCCO [ethanolamine],removal of the solvent by distillation,about 98.7%
